Laboratory results from patent publication US20070219186A1, “Pyrazolo[1,5-A]pyrimidine derivatives and methods of use thereof” (priority 2006, published 2007).
Where two headings read alike, the source gives them in different places.

Molecular target: T1, human B-Raf (Homo sapiens, UniProt P15056)
T1 construct: Flag; GST; made in house; host or cells: Sf9 insect cells (B-Raf); E. coli (MEK1-GST)
Assay: B-Raf Kinase to MEK1 ELISA
Assay type: biochemical
Conditions: for IC50: median, cpd concentrations from 10 μM to 30 nM in half log dilutions, read-out: Median IC50; for inhibition at 10 µM: read-out: % Inhib./10 uM
Outline: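 Read-out is a DELFIA europium signal from phospho-MEK1 (Ser217/221) antibody after capture of GST-MEK1 (50 nM final) on anti-GST plates. Phosphorylation comes from Sf9-expressed Flag/GST human B-Raf (~20 ng) with ATP/MgCl2, 60 min RT, pH 7.2 MOPS.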

T1 sequence (P15056 whole entry): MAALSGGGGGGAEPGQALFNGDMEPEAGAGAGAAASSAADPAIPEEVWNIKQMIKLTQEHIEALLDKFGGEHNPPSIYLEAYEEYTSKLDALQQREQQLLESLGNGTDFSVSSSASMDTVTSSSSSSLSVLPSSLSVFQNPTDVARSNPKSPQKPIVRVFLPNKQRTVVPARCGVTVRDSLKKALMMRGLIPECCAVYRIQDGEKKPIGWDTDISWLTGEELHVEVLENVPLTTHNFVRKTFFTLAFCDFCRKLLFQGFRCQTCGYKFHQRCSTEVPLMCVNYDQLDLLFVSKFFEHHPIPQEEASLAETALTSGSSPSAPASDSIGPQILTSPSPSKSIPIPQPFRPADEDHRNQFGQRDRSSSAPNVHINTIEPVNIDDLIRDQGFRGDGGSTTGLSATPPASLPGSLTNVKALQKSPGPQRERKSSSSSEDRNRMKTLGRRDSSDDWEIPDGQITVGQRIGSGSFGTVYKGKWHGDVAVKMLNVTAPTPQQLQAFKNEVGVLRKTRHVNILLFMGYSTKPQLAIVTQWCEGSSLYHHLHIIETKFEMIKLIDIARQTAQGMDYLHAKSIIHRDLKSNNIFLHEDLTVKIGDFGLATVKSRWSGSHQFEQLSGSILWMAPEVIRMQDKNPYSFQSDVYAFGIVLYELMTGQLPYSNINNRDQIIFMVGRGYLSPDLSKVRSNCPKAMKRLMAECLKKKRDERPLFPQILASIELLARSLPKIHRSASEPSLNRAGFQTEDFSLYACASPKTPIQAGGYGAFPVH

Compound	IC50 [nM]	inhibition at 10 µM [%]	inhibition at 10 µM (single point assay, 10 uM) [%]
CCOC(=O)c1cnn2c(-c3cccc(NC(=O)c4cc(Cl)ccc4Br)c3)ccnc12 [Example 228, ethyl7-{3-[(2-bromo-5-chlorobenzoyl)amino]phenyl}pyrazolo[1,5-a]pyrimidine-3-carboxylate]	> 10000	7	
COCCC(=O)Nc1ccc(-c2cnn3c(-c4cccc(NC(=O)c5cccc(C(F)(F)F)c5)c4)ccnc23)cc1 [Example 231, N-[3-(3-{4-[(3-methoxypropanoyl)amino]phenyl}pyrazolo[1,5-a]pyrimidin-7-yl)phenyl]-3-(trifluoromethyl)benzamide]	246	80	
CN(C)CCCC(=O)Nc1ccc(-c2cnn3c(-c4cccc(NC(=O)c5cccc(C(F)(F)F)c5)c4)ccnc23)cc1 [Example 234, N-{3-[3-(4-{[4-(dimethylamino)butanoyl]amino}phenyl)pyrazolo[1,5-a]pyrimidin-7-yl]phenyl}-3-(trifluoromethyl)benzamide]	19	96	
COCCOCC(=O)Nc1ccc(-c2cnn3c(-c4cccc(NC(=O)c5cccc(C(F)(F)F)c5)c4)ccnc23)cc1 [Example 235, N-{3-[3-(4-{[(2-methoxyethoxy)acetyl]amino}phenyl)pyrazolo[1,5-a]pyrimidin-7-yl]phenyl}-3-(trifluoromethyl)benzamide]	169	84	
Cn1cccc1C(=O)Nc1cccc(-c2ccnc3cc(-c4ccncc4)nn23)c1 [Example 236, 1-methyl-N-[3-(2-pyridin-4-ylpyrazolo[1,5-a]pyrimidin-7-yl)phenyl]-1H-pyrrole-2-carboxamide]		50	
O=C(Nc1cccc(-c2ccnc3cc(-c4ccncc4)nn23)c1)c1nccc2ccccc12 [Example 237, N-[3-(2-pyridin-4-ylpyrazolo[1,5-a]pyrimidin-7-yl)phenyl]isoquinoline-1-carboxamide]	> 10000	44	
Cn1c(C(=O)Nc2cccc(-c3ccnc4cc(-c5ccncc5)nn34)c2)cc2ccccc21 [Example 238, 1-methyl-N-[3-(2-pyridin-4-ylpyrazolo[1,5-a]pyrimidin-7-yl)phenyl]-1H-indole-2-carboxamide]	> 10000	50	
O=C(Nc1cccc(-c2ccnc3cc(-c4ccncc4)nn23)c1)c1ccc(Br)s1 [Example 239, 5-bromo-N-[3-(2-pyridin-4-ylpyrazolo[1,5-a]pyrimidin-7-yl)phenyl]thiophene-2-carboxamide]	200	86	

Now from value to compound:

IC50 [nM]	inhibition at 10 µM [%]	inhibition at 10 µM (single point assay, 10 uM) [%]	Compound
118	83		COCC(=O)Nc1ccc(-c2cnn3c(-c4cccc(NC(=O)c5cccc(C(F)(F)F)c5)c4)ccnc23)cc1 [Example 229, N-[3-(3-{4-[(methoxyacetyl)amino]phenyl}pyrazolo[1,5-a]pyrimidin-7-yl)phenyl]-3-(trifluoromethyl)benzamide]
49		93	CN(C)CC(=O)Nc1ccc(-c2cnn3c(-c4cccc(NC(=O)c5cccc(C(F)(F)F)c5)c4)ccnc23)cc1 [Example 230, N-[3-(3-{4-[(N,N-dimethylglycyl)amino]phenyl}pyrazolo[1,5-a]pyrimidin-7-yl)phenyl]-3-(trifluoromethyl)benzamide]
174	99		O=C(Cc1c[nH]cn1)Nc1ccc(-c2cnn3c(-c4cccc(NC(=O)c5cccc(C(F)(F)F)c5)c4)ccnc23)cc1 [Example 232, N-[3-(3-{4-[(1H-imidazol-4-ylacetyl)amino]phenyl}pyrazolo[1,5-a]pyrimidin-7-yl)phenyl]-3-(trifluoromethyl)benzamide]
1000	96		O=C(Cc1nnn[nH]1)Nc1ccc(-c2cnn3c(-c4cccc(NC(=O)c5cccc(C(F)(F)F)c5)c4)ccnc23)cc1 [Example 233, N-[3-(3-{4-[(1H-tetrazol-5-ylacetyl)amino]phenyl}pyrazolo[1,5-a]pyrimidin-7-yl)phenyl]-3-(trifluoromethyl)benzamide]
